How the values were obtained:
[1] = Sample appearance on sample preparation in water; type: physicochemical; conditions: 1 mL of water was added to 1 mg solid
H460 (lung carcinoma) = test: Cancer screening, MTT growth inhibition; type: cell-based; conditions: for inhibition at 25 µM / GI50: Homo sapiens; for inhibition at 25 µM: NCI-H460, 25 µM of drug, read-out: DOSE SCREEN percentage (%) cell growth inhibition H460 Lung; for GI50: NCI-H460, 72 h, read-out: DOSE RESPONSE GI50 H460 Lung
Description: (§1) For Table 4, all test agents were prepared as stock solutions ([…]) in dimethyl sulfoxide (DMSO) and stored at −20 °C. Cell lines used in the study included HT29 (colorectal carcinoma), A2780 (ovarian carcinoma), H460 (lung carcinoma), A431 (skin carcinoma), MiaPaCa-2 (pancreatic carcinoma), and SMA560 (spontaneous murine astrocytoma), together with MCF10A (non-tumour derived normal breast cell line). Cell line sources: the HT29, H460, and MiaPaCa-2, together with MCF10A were purchased from ATCC. The A2780 and A431 were purchased from the European Collection of Cell Culture (ECACC). All cell lines were incubated in a humidified atmosphere 5% CO2 at 37 °C. The cancer cell lines were maintained in Dulbecco’s modified Eagle’s medium (DMEM; Sigma, Truganina, Australia) supplemented with foetal bovine serum (10%), sodium pyruvate ([…]), penicillin (100 IUmL^−1), streptomycin (100 µg mL^−1), and L-glutamine ([…]).
(§2) Growth inhibition was determined by plating cells in duplicate in medium (100 µL) at a density of 2500–4000 cells per well in 96-well plates. On day 0 (24 h after plating), when the cells are in logarithmic growth, medium (100 µL) with or without the test agent was added to each well. […] Each data point is the mean ± the standard error of the mean (SEM) calculated from three replicates which were performed on separate occasions and separate cell line passages.

[2] = system: HT29 (colorectal carcinoma); test: Cancer screening, MTT growth inhibition; type: cell-based; conditions: for inhibition at 25 µM / GI50: Homo sapiens; for inhibition at 25 µM: HT-29, 25 µM of drug, read-out: DOSE SCREEN percentage (%) cell growth inhibition HT29 Colon; for GI50: HT-29, 72 h, read-out: DOSE RESPONSE GI50 HT29 Colon
Description: as §1, §2

[3] = system: A2780 (ovarian carcinoma); test: Cancer screening, MTT growth inhibition; type: cell-based; conditions: for inhibition at 25 µM / GI50: Homo sapiens; for inhibition at 25 µM: A2780, 25 µM of drug, read-out: DOSE SCREEN percentage (%) cell growth inhibition A2780 Ovarian; for GI50: A2780, 72 h, read-out: DOSE RESPONSE GI50 A2780 Ovarian
Description: as §1, §2

A431 (skin carcinoma) = test: Cancer screening, MTT growth inhibition; type: cell-based; conditions: for inhibition at 25 µM / GI50: Homo sapiens; for inhibition at 25 µM: A-431, 25 µM of drug, read-out: DOSE SCREEN percentage (%) cell growth inhibition A431 Skin; for GI50: A-431, 72 h, read-out: DOSE RESPONSE GI50 A431 Skin
Description: as §1, §2

[4] = system: MIA-Pa-Ca2 (pancreatic carcinoma); test: Cancer screening, MTT growth inhibition; type: cell-based; conditions: for inhibition at 25 µM / GI50: Homo sapiens; for inhibition at 25 µM: MIA PaCa-2, 25 µM of drug, read-out: DOSE SCREEN percentage (%) cell growth inhibition MIA-Pa-Ca2 Pancreatic; for GI50: MIA PaCa-2, 72 h, read-out: DOSE RESPONSE GI50 MIA-Pa-Ca2 Pancreatic
Description: as §1, §2

[5] = system: T1, α-D-galactosidase (coffee beans); test: Glycosidase inhibition (Table 2 panel); type: biochemical
T1 construct: purchased Sigma-Aldrich; host or cells: coffee beans
Description: (§3) The enzymes α-D-glucosidase (yeast), β-D-glucosidases (almond, bovine liver), α-D-galactosidase (coffee beans), β-D-galactosidase (bovine liver), α-D-mannosidase (Jack bean), β-D-mannosidase (snail), α-L-rhamnosidase (P. decumbens), α-L-fucosidase (bovine kidney), trehalase (porcine kidney), β-D-glucuronidases (E. coli, bovine liver), amyloglucosidase (A. niger), para-nitrophenyl glycosides, and various disaccharides were purchased from Sigma-Aldrich Co (St. Louis, MO, USA).
(§4) Brush border membranes were prepared from the rat small intestine according to the method of Kessler et al., and were assayed at pH 6.8 for rat intestinal maltase using maltose. For rat intestinal maltase, porcine kidney trehalase, and A. niger amyloglucosidase activities, the reaction mixture contained maltose ([…]) and the appropriate amount of enzyme, and the incubations were performed for 10–30 min at 37 °C. The reaction was stopped by heating at 100 °C for 3 min. After centrifugation (600 g; 10 min), the resulting reaction mixture was added to the Glucose CII-test Wako (Wako Pure Chemical Ind., Osaka, Japan). The absorbance at 505 nm was measured to determine the amount of the released D-glucose. Other glycosidase activities were determined using an appropriate para-nitrophenyl glycoside as substrate at the optimum pH of each enzyme. The reaction mixture contained the substrate ([…]) and the appropriate amount of enzyme. The reaction was stopped by the addition of Na2CO3 ([…]). The released para-nitrophenol was measured spectrometrically at 400 nm. All reactions were run in […].

β-D-mannosidase (snail) = test: Glycosidase inhibition (Table 2 panel); type: biochemical
Description: as §3, §4

[6] = system: α-D-glucosidase (rat intestinal maltase); test: Glycosidase inhibition (Table 2 panel); type: biochemical
Description: as §3, §4

[7] = system: α-L-rhamnosidase (P. decumbens); test: Glycosidase inhibition (Table 2 panel); type: biochemical
Description: as §3, §4

β-D-glucosidase (almond) = test: Glycosidase inhibition (Table 2 panel); type: biochemical
Description: as §3, §4

[8] = system: T2, trehalase (porcine kidney); test: Glycosidase inhibition (Table 2 panel); type: biochemical
T2 construct: purchased Sigma-Aldrich; host or cells: porcine kidney
Description: as §3, §4

[9] = target: T3, β-D-glucosidase (bovine liver) (Bos taurus, UniProt F1MNT6); test: Glycosidase inhibition (Table 2 panel); type: biochemical
T3 sequence (F1MNT6 1-469): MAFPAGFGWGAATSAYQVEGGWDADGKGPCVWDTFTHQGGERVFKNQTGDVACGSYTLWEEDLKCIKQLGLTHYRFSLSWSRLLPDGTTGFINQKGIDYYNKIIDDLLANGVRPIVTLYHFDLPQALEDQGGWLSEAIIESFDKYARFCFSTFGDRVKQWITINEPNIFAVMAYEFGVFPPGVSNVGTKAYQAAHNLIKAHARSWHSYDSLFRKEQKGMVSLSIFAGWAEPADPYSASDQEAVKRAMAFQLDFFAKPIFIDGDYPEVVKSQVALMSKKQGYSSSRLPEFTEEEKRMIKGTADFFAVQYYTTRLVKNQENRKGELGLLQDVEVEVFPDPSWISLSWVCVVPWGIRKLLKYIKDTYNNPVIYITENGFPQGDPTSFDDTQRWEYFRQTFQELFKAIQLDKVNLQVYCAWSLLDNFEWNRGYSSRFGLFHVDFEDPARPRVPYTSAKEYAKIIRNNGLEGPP
Description: as §3, §4

[10] = system: MCF10A (non-tumour derived normal breast cell line); test: Cancer screening, MTT growth inhibition; type: cell-based; conditions: 72 h; for inhibition at 25 µM / GI50: Homo sapiens, MCF-10A; for inhibition at 25 µM: read-out: DOSE SCREEN percentage (%) cell growth inhibition MCF10A Breast (normal); for GI50: read-out: DOSE RESPONSE GI50 MCF10A Breast (normal)
α-D-glucosidase (rice) = α-D-glucosidase (rice) (Oryza sativa subsp. japonica, UniProt Q653V7); test: Glycosidase inhibition (Table 2 panel); type: biochemical
Sequence of α-D-glucosidase (rice) (Q653V7 34-885): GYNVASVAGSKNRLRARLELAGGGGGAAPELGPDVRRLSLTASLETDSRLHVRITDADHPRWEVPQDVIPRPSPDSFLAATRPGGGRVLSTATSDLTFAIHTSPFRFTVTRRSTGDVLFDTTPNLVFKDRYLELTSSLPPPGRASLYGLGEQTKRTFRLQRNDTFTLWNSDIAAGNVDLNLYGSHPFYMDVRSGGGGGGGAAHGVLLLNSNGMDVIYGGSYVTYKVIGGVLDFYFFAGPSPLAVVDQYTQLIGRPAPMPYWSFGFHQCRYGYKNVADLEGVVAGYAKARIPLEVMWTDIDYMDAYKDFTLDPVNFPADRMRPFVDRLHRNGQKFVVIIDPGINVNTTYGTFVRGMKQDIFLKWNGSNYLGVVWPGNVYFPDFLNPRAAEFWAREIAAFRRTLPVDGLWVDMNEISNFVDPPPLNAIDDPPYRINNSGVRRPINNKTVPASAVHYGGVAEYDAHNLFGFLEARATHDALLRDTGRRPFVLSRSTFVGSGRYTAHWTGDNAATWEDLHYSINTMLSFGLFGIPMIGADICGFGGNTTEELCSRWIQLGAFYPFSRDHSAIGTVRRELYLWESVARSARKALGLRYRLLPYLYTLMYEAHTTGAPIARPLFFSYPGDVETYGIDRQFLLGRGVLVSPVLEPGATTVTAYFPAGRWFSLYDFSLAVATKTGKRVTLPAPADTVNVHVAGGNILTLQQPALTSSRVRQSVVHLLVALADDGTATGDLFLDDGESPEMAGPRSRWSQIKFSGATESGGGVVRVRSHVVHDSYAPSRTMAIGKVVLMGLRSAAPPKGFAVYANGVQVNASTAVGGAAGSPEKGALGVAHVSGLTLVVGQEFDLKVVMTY
Description: as §3, §4

Structure (SMILES) | Sample Appearance [1] | inhibition at 25 µM (H460 (lung carcinoma); 72 h) | inhibition at 25 µM ([2]; 72 h) | inhibition at 25 µM ([3]; 72 h) | inhibition at 25 µM (A431 (skin carcinoma); 72 h) | inhibition at 25 µM ([4]; 72 h) | inhibition % α-D-Galactosidase Coffee Beans ([5]; at 100 μM) | inhibition % β-D-Mannosidase Snail (β-D-mannosidase (snail); at 100 μM) | inhibition % α-D-Glucosidase Rat Intestinal Maltase ([6]; at 100 μM) | inhibition % α-L-Rhamnosidase P. decumbens ([7]; at 100 μM) | inhibition % β-D-Glucosidase Almond (β-D-glucosidase (almond); at 100 μM) | inhibition % Trehalase Porcine Kidney ([8]; at 100 μM) | inhibition at 100 µM ([9]; at 100 μM) | inhibition at 25 µM ([10]; 25 µM of drug) | GI50 (H460 (lung carcinoma)) | GI50 [2] | GI50 [3] | GI50 (A431 (skin carcinoma)) | GI50 [4] | inhibition % α-D-Galactosidase Coffee Beans ([5]; at 1000 μM) | further results
N[C@@H](Cc1ccc(B(O)O)cc1)C(=O)O [BPA, 4-borono-L-phenylalanine, reference compound] | Some in solution with undissolved sediment | 7% | 14% | 4% | 4% | 3% | ^cNI ^d(4.3%) | ^cNI ^d(2.1%) | ^cNI ^d(0%) | ^cNI ^d(0%) | ^cNI ^d(0%) | ^cNI ^d(0%) | 0% | 4% | – | – | – | – | – | – | –
OC[C@H](O)[C@@H]1[C@H](O)[C@H](O)CN1Cc1ccccc1B(O)O [ortho 4, N-(2-Methylphenylboronic acid)-1,4-dideoxy-1,4-imino-L-gulitol] | In solution | 8 ± 2% | < 0% | 16 ± 8% | 17 ± 2% | 7 ± 2% | ^cNI ^d(0%) | ^cNI ^d(5.3%) | ^cNI ^d(0%) | ^cNI ^d(4.9%) | ^cNI ^d(2.6%) | ^cNI ^d(0%) | 3.3% | 8 ± 4% | > 50 µM | > 50 µM | > 50 µM | > 50 µM | > 50 µM | ^aNI ^b(2.7%) | inhibition % β-D-Mannosidase Snail (β-D-mannosidase (snail); at 1000 μM): ^aNI ^b(2.3%); inhibition % α-L-Rhamnosidase P. decumbens ([7]; at 1000 μM): ^aNI ^b(9.5%); inhibition % β-D-Glucosidase Almond (β-D-glucosidase (almond); at 1000 μM): ^aNI ^b(40.1%); inhibition % Trehalase Porcine Kidney ([8]; at 1000 μM): ^aNI ^b(0%); inhibition at 100 µM (α-D-glucosidase (rice); at 100 μM): 0%; IC50 (α-D-glucosidase (rice); listed as of the 1000 μM series): 622 µM; inhibition at 1000 µM ([9]; at 1000 μM): 25.7%; GI50 [10]: > 50 µM
N[C@@H](Cc1ccc(B(O)O)cc1)C(=O)O [^10B-BPA, reference compound] | Some in solution with undissolved sediment | – | – | – | – | – | ^cNI ^d(1.2%) | ^cNI ^d(0.3%) | ^cNI ^d(0%) | ^cNI ^d(0%) | ^cNI ^d(0%) | ^cNI ^d(0%) | – | – | – | – | – | – | – | – | DOSE SCREEN percentage (%) cell growth inhibition H460 Lung (H460 (lung carcinoma); 25 µM of drug, 72 h): * 8 ± 5%; DOSE SCREEN percentage (%) cell growth inhibition HT29 Colon ([2]; 25 µM of drug, 72 h): * 15 ± 4%; DOSE SCREEN percentage (%) cell growth inhibition A2780 Ovarian ([3]; 25 µM of drug, 72 h): * 8 ± 4%; DOSE SCREEN percentage (%) cell growth inhibition A431 Skin (A431 (skin carcinoma); 25 µM of drug, 72 h): * 4 ± 4%; DOSE SCREEN percentage (%) cell growth inhibition MIA-Pa-Ca2 Pancreatic ([4]; 25 µM of drug, 72 h): * 11 ± 3%; inhibition % α-D-Glucosidase Rice (α-D-glucosidase (rice); at 100 μM): ^cNI ^d(0%); inhibition % β-D-Glucosidase Bovine Liver ([9]; at 100 μM): ^cNI ^d(14.2%); DOSE SCREEN percentage (%) cell growth inhibition MCF10A Breast (normal) ([10]; 25 µM of drug): * <0%
OB(O)c1cccc(CN2C[C@@H](O)[C@H]3OC(O)[C@H](O)[C@H]32)c1 (stereo partly drawn) [meta 3, N-(3-Methylphenylboronic acid)-3,6-dideoxy-3,6-imino-D-gulofuranose] | In solution | 2 ± 2% | < 0% | 18 ± 1% | 3% | 17 ± 4% | ^cNI ^d(0%) | ^cNI ^d(0%) | ^cNI ^d(12.3%) | ^cNI ^d(1.2%) | ^cNI ^d(24.8%) | ^cNI ^d(20.9%) | 8.2% | 6 ± 4% | > 50 µM | > 50 µM | > 50 µM | > 50 µM | > 50 µM | ^aNI ^b(0.7%) | inhibition % β-D-Mannosidase Snail (β-D-mannosidase (snail); at 1000 μM): ^aNI ^b(0%); inhibition % α-D-Glucosidase Rat Intestinal Maltase ([6]; at 1000 μM): ^aNI ^b(2.0%); inhibition % α-L-Rhamnosidase P. decumbens ([7]; at 1000 μM): ^aNI ^b(3.2%); inhibition % β-D-Glucosidase Almond (β-D-glucosidase (almond); at 1000 μM): ^aNI ^b(45.8%); inhibition % Trehalase Porcine Kidney ([8]; at 1000 μM): ^aNI ^b(0%); inhibition at 100 µM (α-D-glucosidase (rice); at 100 μM): 0%; inhibition at 1000 µM (α-D-glucosidase (rice); at 1000 μM): 5.9%; GI50 [10]: > 50 µM
